In US20260022142A1, “MACROCYCLIC IMMUNOMODULATORS” (Bristol-Myers Squibb Company, priority 2022, published 2026) one finds IC50 data, which are given here for 13 compounds.

SMILES strings stand for the structures. pIC50: −log10 of the molar value. Bridge positions count the residues as written; N and C are the ends. Square brackets hold non-standard residues; d marks the D form. Peptide text beside a SMILES is read from it. * marks the point of attachment. Bip = N[C@@H](Cc1ccc(-c2ccccc2)cc1)C(=O)O; Phe(3-Me) = Cc1cccc(C[C@H](N)C(=O)O)c1; Cha = N[C@@H](CC1CCCCC1)C(=O)O; Cit = NC(=O)NCCC[C@H](N)C(=O)O; Carboxymethyl = O=C(O)C*; Nle = CCCC[C@H](N)C(=O)O; Orn = NCCC[C@H](N)C(=O)O; Aun = NCCCCCCCCCCC(=O)O; Dab = NCC[C@H](N)C(=O)O; Dap = NC[C@H](N)C(=O)O

T1 sequence (Q15116 25-288): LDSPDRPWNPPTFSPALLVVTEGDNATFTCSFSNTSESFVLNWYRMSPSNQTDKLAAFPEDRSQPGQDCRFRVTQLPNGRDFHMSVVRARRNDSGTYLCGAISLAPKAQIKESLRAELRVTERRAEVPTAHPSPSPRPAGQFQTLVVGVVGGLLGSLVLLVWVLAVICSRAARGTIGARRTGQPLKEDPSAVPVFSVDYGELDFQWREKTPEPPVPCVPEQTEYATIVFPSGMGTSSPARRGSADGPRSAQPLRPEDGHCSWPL

The assay concerns the target T1, PD-1/PD-L1 interaction (PE-labeled human PD-L1-Ig binding to Jurkat cell line over-expressing human PD-1) (Homo sapiens, UniProt Q15116).
T1 construct: expressed in transfected cells; host or cells: Jurkat
Kind of assay: Jurkat-PD-1 Cell Binding High-Content Screening Assay (CBA). The assay is classed as cell-based. The following applies: Jurkat cell line over-expressing human PD-1; PE-labeled PD-L1-Ig 20 nM final; read-out: Jurkat hPD1-PDL1 IC50. In a few lines:
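Jurkat cells over-expressing human PD-1 (8×10^3 per well, DMEM/10% FCS) preincubated with compound 2 h at 37° C, then PE-labeled human PD-L1-Ig (20 nM final) added for 1 h. Cells fixed with paraformaldehyde, Hoechst-stained, and bound fluorescence quantified by high-content imaging.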
As a reminder, the pIC50 is the negative decadic logarithm of the IC50, by convention in mol/L. Regarding `Cc1cccc(C[C@@H]2NC(=O)[C@H](CC(=O)O)NC(=O)[C@H](Cc3ccc(OCC(=O)O)cc3)NC(=O)[C@H](CN)NC(=O)CSC[C@@H](C(=O)N[C@@H](CCN)C(=O)NCCCCCCCCCCC(=O)O)NC(=O)[C@@H](CCC(N)=O)NC(=O)[C@H](C(C)C)NC(=O)[C@H](CC3CCCCC3)NC(=O)[C@H](CCN)NC(=O)[C@@H](CC(C)C)NC(=O)[C@H](CCCN)NC(=O)[C@H](Cc3ccc(O)cc3)NC(=O)[C@H](Cc3ccc(-c4ccccc4)cc3)NC(=O)[C@H](Cc3ccc(O)cc3)NC2=O)c1` [Compound 2715] ({CH2CO}-[Dap]Y(Carboxymethyl)D[Phe(3-Me)]Y[Bip]Y[Orn][dL][Dab][Cha]V[dQ]C[Dab][Aun]-OH; thioether N-14), the pIC50 is 8.05.

As for `Cc1cccc(C[C@@H]2NC(=O)[C@H](CC(=O)O)NC(=O)[C@H](Cc3ccc(OCC(=O)O)cc3)NC(=O)[C@H](CN)NC(=O)CSC[C@@H](C(=O)N[C@@H](CCN)C(=O)NCCCCCCCCCCC(=O)O)NC(=O)[C@@H]([C@H](C)O)NC(=O)[C@H](C(C)C)NC(=O)[C@H](CC3CCCCC3)NC(=O)[C@H](CCN)NC(=O)[C@@H](CC(C)C)NC(=O)[C@H](CCCN)NC(=O)[C@H](Cc3ccc(O)cc3)NC(=O)[C@H](Cc3ccc(-c4ccccc4)cc3)NC(=O)[C@H](Cc3ccc(O)cc3)NC2=O)c1` [Compound 2716] ({CH2CO}-[Dap]Y(Carboxymethyl)D[Phe(3-Me)]Y[Bip]Y[Orn][dL][Dab][Cha]V[dT]C[Dab][Aun]-OH; thioether N-14), the pIC50 was 7.61.

As to `Cc1cccc(C[C@@H]2NC(=O)[C@H](CC(=O)O)NC(=O)[C@H](Cc3ccc(OCC(=O)O)cc3)NC(=O)[C@H](CN)NC(=O)CSC[C@@H](C(=O)N[C@@H](CCN)C(=O)NCCCCCCCCCCC(=O)O)NC(=O)[C@H]([C@@H](C)O)NC(=O)[C@H](C(C)C)NC(=O)[C@H](CC3CCCCC3)NC(=O)[C@H](CCN)NC(=O)[C@@H](CC(C)C)NC(=O)[C@H](CCCN)NC(=O)[C@H](Cc3ccc(O)cc3)NC(=O)[C@H](Cc3ccc(-c4ccccc4)cc3)NC(=O)[C@H](C(C)C)NC2=O)c1` [Compound 2717] ({CH2CO}-[Dap]Y(Carboxymethyl)D[Phe(3-Me)]V[Bip]Y[Orn][dL][Dab][Cha]VTC[Dab][Aun]-OH; thioether N-14), the pIC50 was 7.77. As for `Cc1cccc(C[C@@H]2NC(=O)[C@H](CC(=O)O)NC(=O)[C@H](Cc3ccc(OCC(=O)O)cc3)NC(=O)[C@H](CN)NC(=O)CSC[C@@H](C(=O)N[C@@H](CCN)C(=O)NCCCCCCCCCCC(=O)O)NC(=O)[C@H](CO)NC(=O)[C@H](C(C)C)NC(=O)[C@H](CC3CCCCC3)NC(=O)[C@H](CCN)NC(=O)[C@@H](CC(C)C)NC(=O)[C@H](CCCN)NC(=O)[C@H](Cc3ccc(O)cc3)NC(=O)[C@H](Cc3ccc(-c4ccccc4)cc3)NC(=O)[C@H](C(C)C)NC2=O)c1` [Compound 2718] ({CH2CO}-[Dap]Y(Carboxymethyl)D[Phe(3-Me)]V[Bip]Y[Orn][dL][Dab][Cha]VSC[Dab][Aun]-OH; thioether N-14), the pIC50 was 7.50.

`Cc1cccc(C[C@@H]2NC(=O)[C@H](CC(=O)O)NC(=O)[C@H](Cc3ccc(OCC(=O)O)cc3)NC(=O)[C@H](CN)NC(=O)CSC[C@@H](C(=O)N[C@@H](CCN)C(=O)NCCCCCCCCCCC(=O)O)NC(=O)[C@H](CCC(N)=O)NC(=O)[C@H](C(C)C)NC(=O)[C@H](CC3CCCCC3)NC(=O)[C@H](CCN)NC(=O)[C@@H](CC(C)C)NC(=O)[C@H](CCCN)NC(=O)[C@H](Cc3ccc(O)cc3)NC(=O)[C@H](Cc3ccc(-c4ccccc4)cc3)NC(=O)[C@H](C(C)C)NC2=O)c1` [Compound 2719] ({CH2CO}-[Dap]Y(Carboxymethyl)D[Phe(3-Me)]V[Bip]Y[Orn][dL][Dab][Cha]VQC[Dab][Aun]-OH; thioether N-14): the pIC50 is 8.13. As to `CCCC[C@@H]1NC(=O)[C@H](C(C)C)NC(=O)[C@H](CC2CCCCC2)NC(=O)[C@H](CCN)NC(=O)[C@@H](CC(C)C)NC(=O)[C@H](CCCN)NC(=O)[C@H](Cc2ccc(O)cc2)NC(=O)[C@H](Cc2ccc(-c3ccccc3)cc2)NC(=O)[C@H](C(C)C)NC(=O)[C@H](Cc2cccc(C)c2)NC(=O)[C@H](CC(=O)O)NC(=O)[C@H](Cc2ccc(OCC(=O)O)cc2)NC(=O)[C@H](CN)NC(=O)CSC[C@@H](C(=O)N[C@@H](CCN)C(=O)NCCCCCCCCCCC(=O)O)NC1=O` [Compound 2720] ({CH2CO}-[Dap]Y(Carboxymethyl)D[Phe(3-Me)]V[Bip]Y[Orn][dL][Dab][Cha]V[Nle]C[Dab][Aun]-OH; thioether N-14), the pIC50 is 6.87. Next, `Cc1cccc(C[C@@H]2NC(=O)[C@H](CC(=O)O)NC(=O)[C@H](Cc3ccc(OCC(=O)O)cc3)NC(=O)[C@H](CN)NC(=O)CSC[C@@H](C(=O)N[C@@H](CCN)C(=O)NCCCCCCCCCCC(=O)O)NC(=O)[C@@H](CCC(N)=O)NC(=O)[C@H](C(C)C)NC(=O)[C@H](CC3CCCCC3)NC(=O)[C@H](CCN)NC(=O)[C@@H](CC(C)C)NC(=O)[C@H](CCCN)NC(=O)[C@H](Cc3ccc(O)cc3)NC(=O)[C@H](Cc3ccc(-c4ccccc4)cc3)NC(=O)[C@H](C(C)C)NC2=O)c1` [Compound 2721] ({CH2CO}-[Dap]Y(Carboxymethyl)D[Phe(3-Me)]V[Bip]Y[Orn][dL][Dab][Cha]V[dQ]C[Dab][Aun]-OH; thioether N-14): 7.65. Next, `Cc1cccc(C[C@@H]2NC(=O)[C@H](CC(=O)O)NC(=O)[C@H](Cc3ccc(OCC(=O)O)cc3)NC(=O)[C@H](CN)NC(=O)CSC[C@@H](C(=O)N[C@@H](CCN)C(=O)NCCCCCCCCCCC(=O)O)NC(=O)[C@@H]([C@H](C)O)NC(=O)[C@H](C(C)C)NC(=O)[C@H](CC3CCCCC3)NC(=O)[C@H](CCN)NC(=O)[C@@H](CC(C)C)NC(=O)[C@H](CCCN)NC(=O)[C@H](Cc3ccc(O)cc3)NC(=O)[C@H](Cc3ccc(-c4ccccc4)cc3)NC(=O)[C@H](C(C)C)NC2=O)c1` [Compound 2722] ({CH2CO}-[Dap]Y(Carboxymethyl)D[Phe(3-Me)]V[Bip]Y[Orn][dL][Dab][Cha]V[dT]C[Dab][Aun]-OH; thioether N-14): 7.46. Next, `Cc1cccc(C[C@@H]2NC(=O)[C@H](CC(=O)O)NC(=O)[C@H](Cc3ccc(OCC(=O)O)cc3)NC(=O)[C@H](CCCNC(=N)N)NC(=O)CSC[C@@H](C(=O)N[C@@H](CCN)C(=O)NCCCCCCCCCCC(=O)O)NC(=O)[C@H](CCCNC(N)=O)NC(=O)[C@H](C(C)C)NC(=O)[C@H](CC3CCCCC3)NC(=O)[C@H](CCN)NC(=O)[C@@H](CC(C)C)NC(=O)[C@H](CCCN)NC(=O)[C@H](Cc3ccc(O)cc3)NC(=O)[C@H](Cc3ccc(-c4ccccc4)cc3)NC(=O)[C@H](C(C)C)NC2=O)c1` [Compound 2723] ({CH2CO}-RY(Carboxymethyl)D[Phe(3-Me)]V[Bip]Y[Orn][dL][Dab][Cha]V[Cit]C[Dab][Aun]-OH; thioether N-14): 7.57.

In the case of `Cc1cccc(C[C@@H]2NC(=O)[C@H](CC(=O)O)NC(=O)[C@H](Cc3ccc(OCC(=O)O)cc3)NC(=O)[C@H](CCCNC(=N)N)NC(=O)CSC[C@@H](C(=O)N[C@@H](CCN)C(=O)NCCCCCCCCCCC(=O)O)NC(=O)[C@H](CCCNC(N)=O)NC(=O)[C@H](C(C)C)NC(=O)[C@H](CC3CCCCC3)NC(=O)[C@H](CCN)NC(=O)[C@@H](CC(C)C)NC(=O)[C@H](CCCN)NC(=O)[C@H](Cc3ccc(O)cc3)NC(=O)[C@H](Cc3ccc(-c4ccccc4)cc3)NC(=O)[C@H](Cc3ccc(O)cc3)NC2=O)c1` [Compound 2724] ({CH2CO}-RY(Carboxymethyl)D[Phe(3-Me)]Y[Bip]Y[Orn][dL][Dab][Cha]V[Cit]C[Dab][Aun]-OH; thioether N-14), the pIC50 is 8.11. Next, `Cc1cccc(C[C@@H]2NC(=O)[C@H](CC(=O)O)NC(=O)[C@H](Cc3ccc(OCC(=O)O)cc3)NC(=O)[C@H](CCCNC(=N)N)NC(=O)CSC[C@@H](C(=O)N[C@@H](CCN)C(=O)NCCCCCCCCCCC(=O)O)NC(=O)[C@H]([C@@H](C)O)NC(=O)[C@H](C(C)C)NC(=O)[C@H](CC3CCCCC3)NC(=O)[C@H](CCN)NC(=O)[C@@H](CC(C)C)NC(=O)[C@H](CCCN)NC(=O)[C@H](Cc3ccc(O)cc3)NC(=O)[C@H](Cc3ccc(-c4ccccc4)cc3)NC(=O)[C@H](C(C)C)NC2=O)c1` [Compound 2725] ({CH2CO}-RY(Carboxymethyl)D[Phe(3-Me)]V[Bip]Y[Orn][dL][Dab][Cha]VTC[Dab][Aun]-OH; thioether N-14): 7.52; `Cc1cccc(C[C@@H]2NC(=O)[C@H](CC(=O)O)NC(=O)[C@H](Cc3ccc(OCC(=O)O)cc3)NC(=O)[C@H](CCCNC(=N)N)NC(=O)CSC[C@@H](C(=O)N[C@@H](CCN)C(=O)NCCCCCCCCCCC(=O)O)NC(=O)[C@H]([C@@H](C)O)NC(=O)[C@H](C(C)C)NC(=O)[C@H](CC3CCCCC3)NC(=O)[C@H](CCN)NC(=O)[C@@H](CC(C)C)NC(=O)[C@H](CCCN)NC(=O)[C@H](Cc3ccc(O)cc3)NC(=O)[C@H](Cc3ccc(-c4ccccc4)cc3)NC(=O)[C@H](Cc3ccc(O)cc3)NC2=O)c1` [Compound 2726] ({CH2CO}-RY(Carboxymethyl)D[Phe(3-Me)]Y[Bip]Y[Orn][dL][Dab][Cha]VTC[Dab][Aun]-OH; thioether N-14): 7.62. Next, `CC(C)C[C@H]1NC(=O)[C@H](CCCN)NC(=O)[C@H](Cc2ccc(O)cc2)NC(=O)[C@H](Cc2ccc(-c3ccccc3)cc2)NC(=O)[C@H](C(C)C)NC(=O)[C@H](Cc2c[nH]c3ccccc23)NC(=O)[C@H](CC(=O)O)NC(=O)[C@H](Cc2ccc(OCC(=O)O)cc2)NC(=O)[C@H]([C@@H](C)O)NC(=O)CSC[C@@H](C(=O)N[C@@H](CCN)C(=O)NCCCCCCCCCCC(=O)O)NC(=O)[C@H]([C@@H](C)O)NC(=O)[C@H](C(C)C)NC(=O)[C@H](CC2CCCCC2)NC(=O)[C@H](CCN)NC1=O` [Compound 2727] ({CH2CO}-TY(Carboxymethyl)DWV[Bip]Y[Orn][dL][Dab][Cha]VTC[Dab][Aun]-OH; thioether N-14): 7.52.
